Measured values reported in patent EP4177246A1, “FUSED OXAZEPINES AS INHIBITORS OF PEROXIREDOXINS” (Centro Atlántico del Medicamento, SA, priority 2021, dated 2023).

Key:
[1] = tested on: K562; assay: MTT cell viability assay, K562 cells; type: cell-based; settings: Homo sapiens, 48 h drug exposure
Experimental: K562 [American Type Culture Collection (ATCC) reference number CCL-243]. This a human cancer cell line derived from the bone marrow of a person with CML.
(§1) Cell viability was assayed by measuring the mitochondrial reduction of the tetrazolium salt 3-(4,5-methyltiazol-2yl)-2,5diphenyl-tetrazolium bromide] (MTT) (Applichen; A2231,0010) [Mosmann T. J Immunol Methods. 1983 16;65(1-2):55-63 (ref. 36); Chuan Y-C et al 2010. Oncogene. 29 (10), 1531-1542 (ref. 37)]. Cells were seeded in 96-well plates in medium (either RPMI, DMEM or McCoys depending on the recommendations from the ATCC) supplemented with 10% FBS (Lonza Cat. N°: 14-502F), 2mM L-Glut (Lonza Cat. N°: BE17-605E) and 100U/ml PEST (Lonza Cat. N°: DE17-605E) at a cell density of 1000-5000 cells/well (96 well plate). Cells were seeded at a density according to their exponential growth phase (normally 1000 to 5000/well). The cells were cultured at 37 °C in the dark in air containing 5% CO2. After 24h either vehicle (0.05% DMSO) or drug were added to culture medium at the indicated concentrations (10 to 0,01microM). After another 48 h, MTT (0.3 mg/ml) was added to cells, followed by incubation for 2-4h at 37 °C in the dark. The medium was then removed and the precipitated formazan was solubilized by the addition of DMSO (200 µL).
(§2) The optical density was measured at 595 nm with the iMark Microplate Reader (BioRad, USA). Data was expressed as percent growth above the level in controls and the results in figures were plotted as means ± SEM of each test point from 3 replicates.
(§3) Statistical analysis. The concentration of drug that provokes 50% reduction of cell viability (IC50) was determined by using non-linear regression analysis and data were fitted to a log concentration vs normalized response curve in GraphPad software v5 (San Diego, CA).

[2] = tested on: MDA-MB-231; assay: MTT cell viability assay, MDA-MB-231 cells; type: cell-based, human; settings: 48 h drug exposure
Experimental: MDA-MB-231 [American Type Culture Collection (ATCC) reference number HTB-26]. This a human breast cancer cell line derived from a metastatic site from a person.
as §1, §2, §3

[3] = tested on: HEL 92.1.7; assay: MTT cell viability assay, HEL cells; type: cell-based; settings: Homo sapiens, 48 h drug exposure
Experimental: HEL 92.1.7 [American Type Culture Collection (ATCC) reference number TIB-180]. This a human cancer cell line derived from the bone marrow of a person with erythroleukemia, which is a form of AML.
as §1, §2, §3

| Compound | IC50 ([2]; Homo sapiens) [µM] | IC50 [3] [µM] | other results |
| --- | --- | --- | --- |
| O=C1C2=C(C(=O)c3ccccc31)N(c1ccc(Cl)cc1)Cc1ccccc1O2 [Compound 3] |  |  | IC50 [1]: 0.9 µM |
| O=C1C2=C(C(=O)c3ccccc31)N(c1ccccn1)Cc1ccccc1O2 [Compound 5, 12-(pyridin-2-yl)-12,13-dihydrobenzo[f]naphtho[2,3-b][1,4]oxazepine-6,11-dione] |  |  | IC50 [1]: 0.43 µM |
| COc1cccc2c1OC1=C(C(=O)c3ccccc3C1=O)N(c1ccc(C(N)=O)cc1)C2 [Compound 7] |  |  | IC50 [1]: 0.89 µM |
| COc1ccc2c(c1)OC1=C(C(=O)c3ccccc3C1=O)N(c1ccc(C#N)cc1)C2 [Compound 14] |  |  | IC50 [1]: 0.97 µM |
| O=C(O)c1ccc(N2Cc3ccccc3OC3=C2C(=O)c2ccccc2C3=O)cc1 [Compound 18] |  |  | IC50 [1]: > 10 µM |
| NS(=O)(=O)c1ccc(N2Cc3cc(Cl)ccc3OC3=C2C(=O)c2ccccc2C3=O)cc1 [Compound 20] |  |  | IC50 [1]: 1.42 µM |
| NC(=O)c1ccc(N2Cc3cc(Cl)ccc3OC3=C2C(=O)c2ccccc2C3=O)cc1 [Compound 21] |  |  | IC50 [1]: 1.12 µM |
| NS(=O)(=O)c1ccc(N2Cc3ccccc3OC3=C2C(=O)c2ccc(S(=O)(=O)N4CCOCC4)cc2C3=O)cc1 [Compound 29] | > 10 |  |  |
| O=C(O)c1ccc2c(c1)CN(c1ccccc1)C1=C(O2)C(=O)c2c(O)ccc(O)c2C1=O [Compound 50] |  | 2.42 |  |
| O=C(O)c1ccc2c(c1)CN(c1cccnc1)C1=C(O2)C(=O)c2c(O)ccc(O)c2C1=O [Compound 52] | > 10 | > 10 |  |
| CCOC(=O)c1ccc2c(c1)CN(c1ccccc1)C1=C(O2)C(=O)c2c(O)ccc(O)c2C1=O [Compound 64] |  | 5.89 | IC50 [1]: 1.3 µM |
| N#Cc1ccc(N2Cc3ccccc3OC3=C2C(=O)c2ccc(S(=O)(=O)N4CCOCC4)cc2C3=O)cc1 [Compound 70] | 7.1 |  |  |
| CS(=O)(=O)Nc1cccc2c1C(=O)C1=C(C2=O)N(c2ccc(C#N)cc2)Cc2ccccc2O1 [Compound 78, N-(12-(4-cyanophenyl)-6,11-dioxo-6,11,12,13-tetrahydrobenzo[f]naphtha [2,3-b][1,4]oxazepin-7-yl)methanesulfonamide] | 6.9 |  |  |
| NS(=O)(=O)c1ccc(N2Cc3ccccc3OC3=C2C(=O)c2cccc([N+](=O)[O-])c2C3=O)cc1 [Compound 79] | 6.8 |  |  |
| NS(=O)(=O)c1ccc(N2Cc3ccccc3OC3=C2C(=O)c2c(cccc2[N+](=O)[O-])C3=O)cc1 [Compound 80] | 6.6 |  |  |
| CC(=O)Oc1ccc(O)c2c1C(=O)C1=C(C2=O)N(c2ccccc2)Cc2ccccc2O1 [Compound 88] |  | 0.08 |  |
| CC(=O)Oc1ccc(O)c2c1C(=O)C1=C(Oc3ccccc3CN1c1cccnc1)C2=O [Compound 90] |  | 0.09 |  |
| CC(=O)Oc1ccc(OC(C)=O)c2c1C(=O)C1=C(Oc3ccccc3C(c3ccc(N(C)C)nc3)N1)C2=O (centres unmarked) [Compound 95, 12-(6-(dimethylamino)pyridin-3-yl)-6,11-dioxo-6,11,12,13-tetrahydrobenzo[f]naphtha [2,3-b][1,4]oxazepine-7,10-diyl diacetate] |  |  | IC50 [2]: 0.15 µM |
| CC(=O)Oc1ccc(OC(C)=O)c2c1C(=O)C1=C(Oc3ccccc3C(c3ccc(N4CCOCC4)nc3)N1)C2=O (centres unmarked) [Compound 96, 12-(6-morpholinopyridin-3-yl)-6,11-dioxo-6,11,12,13-tetrahydrobenzo[f]naphtha [2,3-b][1,4] oxazepine-7,10-diyl diacetate] |  |  | IC50 [2]: 0.13 µM |
| N#Cc1ccc(N2Cc3ccccc3OC3=C2C(=O)c2cccc([N+](=O)[O-])c2C3=O)cc1 [Compound 107] | 5.9 |  |  |

Further compounds by falling IC50 ([2]; Homo sapiens), results first:

| IC50 ([2]; Homo sapiens) [µM] | Compound | IC50 [3] [µM] | other results |
| --- | --- | --- | --- |
| 3.2 | O=C1C2=C(C(=O)c3ccc(S(=O)(=O)N4CCOCC4)cc31)N(c1cccnc1)Cc1ccccc1O2 [Compound 71] |  |  |
| 2.95 | N#Cc1ccc(N2Cc3ccccc3OC3=C2C(=O)c2c(cccc2[N+](=O)[O-])C3=O)cc1 [Compound 108] |  |  |
| 2 | O=C1C2=C(C(=O)c3c1cccc3[N+](=O)[O-])N(c1cccnc1)Cc1ccccc1O2 [Compound 28] |  |  |
| 1.8 | N#Cc1ccc(N2Cc3ccccc3OC3=C2C(=O)c2ccc(Br)c(O)c2C3=O)cc1 [Compound 74, 4-(8-bromo-7-hydroxy-6,11-dioxo-6,11-dihydrobenzo[f]naphtho[2,3-b][1,4]oxazepin-12(13H)-yl)benzonitrile] |  |  |
| 1.73 | O=C1C2=C(Oc3ccccc3CN2c2cccnc2)C(=O)c2c1cccc2[N+](=O)[O-] [Compound 27] |  |  |
| 1.51 | COc1cc(F)c(OC)c2c1C(=O)C1=C(Oc3ccccc3CN1c1ccc(C#N)cc1)C2=O [Compound 31] |  |  |
| 1.17 | O=C(O)c1ccc(N2Cc3ccccc3OC3=C2C(=O)c2c(O)ccc(O)c2C3=O)cc1 [Compound 57] | 0.13 |  |
| 1 | COc1ccc(OC)c2c1C(=O)C1=C(C2=O)N(c2cccc(C#N)c2)Cc2ccccc2O1 [Compound 94] |  |  |
| 0.89 | COc1ccc(OC)c2c1C(=O)C1=C(C2=O)N(c2ccc(C#N)cc2)Cc2ccccc2O1 [Compound 30] |  |  |
| 0.8 | COc1cc(F)c(OC)c2c1C(=O)C1=C(Oc3ccccc3CN1c1cccnc1)C2=O [Compound 35] |  |  |
| 0.8 | CC(=O)Oc1ccc(OC(C)=O)c2c1C(=O)C1=C(C2=O)N(c2cccc(C#N)c2)Cc2ccccc2O1 [Compound 82, 12-(3-cyanophenyl)-6,11-dioxo-6,11,12,13-tetrahydrobenzo[f]naphtho[2,3-b][1,4] oxazepine-7,10-diyl diacetate] | 0.18 |  |
| 0.79 | CN1CCN(c2cc(O)c3c(c2O)C(=O)C2=C(C3=O)N(c3ccc(C#N)cc3)Cc3ccccc3O2)CC1 [Compound 32] |  |  |
| 0.74 | N#Cc1ccc(N2Cc3ccccc3OC3=C2C(=O)c2c(O)cc(F)c(O)c2C3=O)cc1 [Compound 34] |  |  |
| 0.72 | CN1CCN(c2cc(O)c3c(c2O)C(=O)C2=C(C3=O)N(c3cccnc3)Cc3ccccc3O2)CC1 [Compound 33] |  |  |
| 0.72 | CN(C)CCOc1ccc(N2Cc3ccccc3OC3=C2C(=O)c2ccccc2C3=O)cn1 [Compound 72] |  |  |
| 0.64 | CC(=O)Oc1ccc(OC(C)=O)c2c1C(=O)C1=C(C2=O)N(c2ccc(C(=O)O)cc2)Cc2ccccc2O1 [Compound 53] | 0.12 |  |
| 0.6 | CCOC(=O)c1ccc2c(c1)CN(c1cccnc1)C1=C(O2)C(=O)c2c(O)ccc(O)c2C1=O [Compound 51] | 3.31 |  |
| 0.5 | O=C1C2=C(C(=O)c3c(O)ccc(O)c31)N(c1ccc(C(=O)N3CCOCC3)cc1)Cc1ccccc1O2 [Compound 58, 7,10-dihydroxy-12-(4-(morpholine-4-carbonyl)phenyl)-12,13-dihydrobenzo[f]naphtho[2,3-b][1,4]oxazepine-6,11-dione] |  |  |
| 0.41 | CC(=O)Oc1ccc(OC(C)=O)c2c1C(=O)C1=C(C2=O)N(c2cccnc2)Cc2ccccc2O1 [Compound 60, 6,11-dioxo-12-(pyridin-3-yl)-6,11,12,13-tetrahydrobenzo[f]naphtho[2,3-b][1,4] oxazepine-7,10-diyl diacetate] | 0.08 |  |
| 0.33 | O=C1C2=C(C(=O)c3c(O)ccc(O)c31)N(c1ccc(Cl)nc1)Cc1ccccc1O2 [Compound 47, 12-(6-chloropyridin-3-yl)-7,10-dihydroxy-12,13-dihydrobenzo[f]naphtho[2,3-b][1,4]-oxazepine-6,11-dione] |  |  |
| 0.28 | CC(=O)Oc1ccc(OC(C)=O)c2c1C(=O)C1=C(C2=O)N(c2ccc(C#N)cc2)Cc2ccccc2O1 [Compound 67, 12-(4-cyanophenyl)-6,11-dioxo-6,11,12,13-tetrahydrobenzo[f]naphtho[2,3-b][1,4] oxazepine-7,10-diyl diacetate] | 0.23 |  |
| 0.27 | COC(=O)c1ccc(N2Cc3ccccc3OC3=C2C(=O)c2c(O)ccc(O)c2C3=O)cc1 [Compound 48] | 0.1 |  |
| 0.25 | COc1ccc(N2Cc3ccccc3OC3=C2C(=O)c2c(O)ccc(O)c2C3=O)cc1 [Compound 46] | 0.11 |  |
| 0.25 | NCCN(CCO)c1ccc(N2Cc3ccccc3OC3=C2C(=O)c2c(O)ccc(O)c2C3=O)cn1 [Compound 63] | 0.09 |  |
| 0.15 | CC(=O)Oc1ccc(OC(C)=O)c2c1C(=O)C1=C(C2=O)N(c2ccccc2)Cc2ccccc2O1 [Compound 87, 6,11-dioxo-12-phenyl-6,11,12,13-tetrahydrobenzo[f]naphtho[2,3-b][1,4]oxazepine-7,10-diyl diacetate] | 0.08 |  |
| 0.15 | CC(=O)Oc1ccc(OC(C)=O)c2c1C(=O)C1=C(C2=O)N(c2cccc(C(N)=O)c2)Cc2ccccc2O1 [Compound 92, 12-(3-carbamoylphenyl)-6,11-dioxo-6,11,12,13-tetrahydrobenzo[f]naphtho[2,3-b][1,4] oxazepine-7,10-diyl diacetate] | 0.12 |  |
